# The source made the active and inactive calls.
# Experiments:
# [1] = target: Glucose-6-phosphate 1-dehydrogenase (Homo sapiens, UniProt P11413); test: human G6PD enzyme inhibitors, dose response, selectivity assay for P. falciparum G6PD inhibitor project, biochemical, fluorescence (AID 504792); format: functional
# Protein RecA = target: T1, Protein RecA (Mycobacterium tuberculosis, UniProt P9WHJ3); test: Fluorescence Cell-Free Homogeneous Dose Retest to Identify Inhibitors of RecA-Intein Splicing Activity. [Related pubchem assays (depositor defined):AID2097, AID2223, AID489010, AID492950]; format: functional
# T1 sequence (P9WHJ3 whole entry): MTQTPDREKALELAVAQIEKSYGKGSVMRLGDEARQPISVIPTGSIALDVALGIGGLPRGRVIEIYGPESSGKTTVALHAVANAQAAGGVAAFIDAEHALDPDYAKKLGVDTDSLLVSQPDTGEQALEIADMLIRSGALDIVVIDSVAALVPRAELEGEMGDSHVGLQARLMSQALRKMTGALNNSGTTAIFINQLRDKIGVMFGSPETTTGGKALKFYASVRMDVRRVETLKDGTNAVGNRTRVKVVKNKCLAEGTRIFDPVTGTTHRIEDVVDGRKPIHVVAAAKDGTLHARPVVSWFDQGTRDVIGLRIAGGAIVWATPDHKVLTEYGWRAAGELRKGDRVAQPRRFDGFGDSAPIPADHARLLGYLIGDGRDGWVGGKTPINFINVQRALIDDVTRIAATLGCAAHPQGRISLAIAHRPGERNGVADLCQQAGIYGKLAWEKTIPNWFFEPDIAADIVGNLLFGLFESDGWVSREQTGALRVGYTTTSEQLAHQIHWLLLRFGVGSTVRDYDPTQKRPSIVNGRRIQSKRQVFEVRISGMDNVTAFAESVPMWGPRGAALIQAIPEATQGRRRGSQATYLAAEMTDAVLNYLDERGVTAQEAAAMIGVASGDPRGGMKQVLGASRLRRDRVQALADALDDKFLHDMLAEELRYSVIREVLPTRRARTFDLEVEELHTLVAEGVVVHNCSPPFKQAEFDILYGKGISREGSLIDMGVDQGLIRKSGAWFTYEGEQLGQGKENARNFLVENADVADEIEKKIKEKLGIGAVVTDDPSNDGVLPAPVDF
# [2] = growth suppression of PTEN-null colon cells, dose response, cell-based, HCT116 PTEN knockout (AID 1047); format: functional;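 further: HCT116 colon tumor cells with PTEN knocked out; cells exposed to compound for 60 hours before readout; potency for loss of cell viability measured by luminescence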
# [3] = growth suppression of beta-catenin-knockout colon cells, dose response, cell-based, HCT116, human colon tumor (AID 1045); format: functional;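 further: HCT116 colon tumor cells with beta catenin knocked out; cells exposed to compound for 60 hours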
# Vero = test: cells; format: functional; conditions: Chlorocebus sabaeus
# Aminopeptidase N = target: T2, Aminopeptidase N (Plasmodium falciparum FcB1/Columbia, UniProt O96935); test: P. falciparum M1AAP inhibitors, biochemical, fluorogenic H-Leu-NHMec substrate, 1536-well (AID 1445); parameters: species or system Plasmodium falciparum 3D7, 3D7
# T2 sequence (O96935 whole entry): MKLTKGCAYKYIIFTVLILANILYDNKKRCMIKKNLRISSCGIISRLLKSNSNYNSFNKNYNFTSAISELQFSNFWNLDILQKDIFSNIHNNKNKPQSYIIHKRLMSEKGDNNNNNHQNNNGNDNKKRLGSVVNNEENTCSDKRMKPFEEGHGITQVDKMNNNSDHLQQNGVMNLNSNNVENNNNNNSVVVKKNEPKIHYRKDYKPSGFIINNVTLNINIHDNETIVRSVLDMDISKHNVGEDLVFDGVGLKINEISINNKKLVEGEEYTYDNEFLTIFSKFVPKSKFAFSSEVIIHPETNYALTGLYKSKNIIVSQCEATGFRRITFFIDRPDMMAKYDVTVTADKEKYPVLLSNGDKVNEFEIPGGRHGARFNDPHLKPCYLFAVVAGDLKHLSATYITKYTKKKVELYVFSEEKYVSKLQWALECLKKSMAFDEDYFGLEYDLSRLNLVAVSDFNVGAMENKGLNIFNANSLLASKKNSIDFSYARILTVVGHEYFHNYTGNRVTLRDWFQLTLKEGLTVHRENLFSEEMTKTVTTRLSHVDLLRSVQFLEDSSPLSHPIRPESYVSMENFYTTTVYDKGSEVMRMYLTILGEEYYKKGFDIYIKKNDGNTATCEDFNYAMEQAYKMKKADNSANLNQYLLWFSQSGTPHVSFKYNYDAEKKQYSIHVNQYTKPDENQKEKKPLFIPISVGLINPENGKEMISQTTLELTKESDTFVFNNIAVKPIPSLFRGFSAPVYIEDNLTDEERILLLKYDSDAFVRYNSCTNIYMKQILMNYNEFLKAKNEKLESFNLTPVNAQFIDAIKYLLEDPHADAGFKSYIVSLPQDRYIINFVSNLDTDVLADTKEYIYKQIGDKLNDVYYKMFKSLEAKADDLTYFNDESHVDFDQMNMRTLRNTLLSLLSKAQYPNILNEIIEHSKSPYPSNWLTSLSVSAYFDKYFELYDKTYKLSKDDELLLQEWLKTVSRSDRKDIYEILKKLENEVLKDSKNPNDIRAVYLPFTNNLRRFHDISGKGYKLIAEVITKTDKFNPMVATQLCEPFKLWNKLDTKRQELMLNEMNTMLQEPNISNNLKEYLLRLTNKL
# [4] = target: T3, Corticotropin-releasing factor receptor 2/Corticotropin-releasing factor-binding protein (Homo sapiens, UniProt P24387+Q13324); test: activators of CRF receptor 2 with binding protein – uHTS hits, confirmation (AID 602473); format: functional; conditions: read-out: EC50_Mean
# T3 sequence (Q13324 whole entry): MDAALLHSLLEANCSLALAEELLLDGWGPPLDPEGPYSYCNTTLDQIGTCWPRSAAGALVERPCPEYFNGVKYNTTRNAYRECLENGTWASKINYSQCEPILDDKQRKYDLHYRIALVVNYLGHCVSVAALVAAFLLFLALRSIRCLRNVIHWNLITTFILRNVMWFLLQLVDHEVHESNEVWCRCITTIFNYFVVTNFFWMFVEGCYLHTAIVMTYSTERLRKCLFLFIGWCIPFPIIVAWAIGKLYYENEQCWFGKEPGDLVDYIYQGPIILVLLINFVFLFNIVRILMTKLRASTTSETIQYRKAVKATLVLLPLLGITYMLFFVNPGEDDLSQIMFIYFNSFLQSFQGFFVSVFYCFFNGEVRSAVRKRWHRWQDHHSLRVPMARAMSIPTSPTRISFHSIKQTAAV
# T3 sequence (P24387 whole entry): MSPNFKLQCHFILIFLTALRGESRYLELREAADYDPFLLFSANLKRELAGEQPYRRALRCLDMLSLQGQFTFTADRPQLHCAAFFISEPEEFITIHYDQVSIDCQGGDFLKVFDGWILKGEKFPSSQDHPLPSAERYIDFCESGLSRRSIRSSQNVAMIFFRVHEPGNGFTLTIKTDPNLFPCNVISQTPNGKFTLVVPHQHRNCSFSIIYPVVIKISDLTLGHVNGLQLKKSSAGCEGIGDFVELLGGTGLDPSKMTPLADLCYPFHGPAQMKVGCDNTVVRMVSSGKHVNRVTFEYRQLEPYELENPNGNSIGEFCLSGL
# [5] = target: T3, Corticotropin-releasing factor receptor 2/Corticotropin-releasing factor-binding protein; test: Dose Response confirmation of uHTS hits for small molecule antagonists of the CRF-binding protein and CRF-R2 receptor complex.; format: functional; conditions: read-out: IC50_Mean
# [6] = cytotoxicity in HEK-293T cells, dose response, cytotoxicity control for BCR NF-kB inhibitor project, luminescence, B-cell screen hits (AID 489021); format: functional, cell-based;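 further: HEK-293T cells carrying an NF-kB luciferase reporter; cells exposed to compound for about 14 hours before viability readout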
# H9c2 = test: cells; format: functional, cell-based; conditions: Rattus norvegicus, H9c2, Myocardium;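 further: confirmatory concentration-response retest of ultra-high-throughput screening hits for modulation of myocardial damage; cell death induced by hydrogen peroxide oxidative stress; compound pretreatment for 60 min then peroxide exposure for 2 h; potency is for protecting the cells against peroxide damage rather than for killing them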
# [7] = target: DNA dC->dU-editing enzyme APOBEC-3G (Homo sapiens, UniProt Q9HC16); test: Dose Response confirmation of small molecule APOBEC3G DNA Deaminase Inhibitors via a fluorescence-based single-stranded DNA deaminase assay. [Related pubchem assays (depositor defined):AID493012, AID493028]; format: functional
# HEK293 [8] = test: cells; format: functional, cell-based; conditions: Homo sapiens
# HEK293 [9] = test: NOD1 signaling inhibitors, primary screen, cell-based, luminescence, uHTS (AID 1578); format: functional; conditions: Homo sapiens
# HEK293 [10] = test: NOD2 signaling inhibitors in MDP-stimulated cells, cell-based, uHTS, luminescence (AID 2001); format: functional; conditions: Homo sapiens
# HEK293 [11] = test: cells; format: functional, cell-based; conditions: Homo sapiens; remark: listed apart in the source
# HEK293 [12] = test: cells; format: functional, cell-based; conditions: Homo sapiens; remark: listed apart in the source
# [13] = target: Nucleotide-binding oligomerization domain-containing protein 2 (Homo sapiens, UniProt Q9HC29); test: NOD2 signaling inhibitors, cell-based, luminescence, uHTS, HEK293 (AID 1566); format: functional
# [14] = inhibitors of intracellular T. cruzi replication, confirmation, NIH3T3 host cells, beta-gal luminescence (AID 2044); format: functional, cell-based;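 further: intracellular parasites grown in NIH/3T3 mouse fibroblasts as host cells; luminescent beta-galactosidase reporter signal from transgenic T. cruzi replicating inside host cells; inhibitors lower the luminescence signal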
# [15] = cytotoxicity toward NIH3T3 fibroblasts, dose response, counter-screen, cell-based, ATP luminescence, mouse fibroblasts (AID 2010); format: functional;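 further: cells exposed to compound for about 90 hours before reading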
# Coagulation factor XII = target: T4, Coagulation factor XII (Homo sapiens, UniProt P00748); format: functional;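 further: activated factor XIIa alpha cleaving a fluorogenic AMC peptide substrate; inhibitor potency from loss of enzyme activity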
# T4 sequence (P00748 whole entry): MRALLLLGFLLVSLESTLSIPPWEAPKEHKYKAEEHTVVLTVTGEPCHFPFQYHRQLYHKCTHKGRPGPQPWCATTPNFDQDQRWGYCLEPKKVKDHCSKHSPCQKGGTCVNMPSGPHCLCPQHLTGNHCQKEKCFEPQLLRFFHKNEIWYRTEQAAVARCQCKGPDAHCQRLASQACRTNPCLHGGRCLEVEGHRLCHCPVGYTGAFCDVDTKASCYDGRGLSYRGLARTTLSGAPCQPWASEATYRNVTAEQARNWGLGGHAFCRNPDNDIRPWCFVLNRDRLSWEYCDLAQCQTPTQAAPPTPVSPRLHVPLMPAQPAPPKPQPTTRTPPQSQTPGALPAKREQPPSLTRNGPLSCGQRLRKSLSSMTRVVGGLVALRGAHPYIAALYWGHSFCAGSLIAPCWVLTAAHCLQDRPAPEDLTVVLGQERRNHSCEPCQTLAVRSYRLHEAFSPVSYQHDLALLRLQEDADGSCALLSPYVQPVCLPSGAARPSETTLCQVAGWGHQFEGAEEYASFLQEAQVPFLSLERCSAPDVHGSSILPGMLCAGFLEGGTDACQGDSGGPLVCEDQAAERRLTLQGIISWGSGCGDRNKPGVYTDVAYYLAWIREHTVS
# cells = format: functional
# [16] = Shn3 3'UTR reporter inhibitors, dose response, cell-based, Clone20 osteoblasts, firefly luciferase, cherry-picked (AID 624132); format: functional;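 further: firefly luciferase luminescence from reporter carrying the Shn3 3'UTR in osteoblasts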
# Glucose-6-phosphate 1-dehydrogenase, sequence (P11413 whole entry): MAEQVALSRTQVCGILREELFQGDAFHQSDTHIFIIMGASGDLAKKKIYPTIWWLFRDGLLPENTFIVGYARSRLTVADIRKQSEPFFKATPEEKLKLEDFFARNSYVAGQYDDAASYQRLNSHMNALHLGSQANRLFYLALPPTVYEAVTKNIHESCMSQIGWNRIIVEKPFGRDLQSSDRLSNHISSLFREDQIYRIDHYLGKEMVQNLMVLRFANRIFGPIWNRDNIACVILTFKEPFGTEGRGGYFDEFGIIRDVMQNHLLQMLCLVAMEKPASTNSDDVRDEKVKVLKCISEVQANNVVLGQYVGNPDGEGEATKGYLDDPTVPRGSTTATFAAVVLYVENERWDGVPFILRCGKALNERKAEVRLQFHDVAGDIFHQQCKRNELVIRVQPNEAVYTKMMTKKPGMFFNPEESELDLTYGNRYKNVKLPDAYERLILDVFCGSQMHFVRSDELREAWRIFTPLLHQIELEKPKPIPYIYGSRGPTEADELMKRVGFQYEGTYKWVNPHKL
# DNA dC->dU-editing enzyme APOBEC-3G, sequence (Q9HC16 whole entry): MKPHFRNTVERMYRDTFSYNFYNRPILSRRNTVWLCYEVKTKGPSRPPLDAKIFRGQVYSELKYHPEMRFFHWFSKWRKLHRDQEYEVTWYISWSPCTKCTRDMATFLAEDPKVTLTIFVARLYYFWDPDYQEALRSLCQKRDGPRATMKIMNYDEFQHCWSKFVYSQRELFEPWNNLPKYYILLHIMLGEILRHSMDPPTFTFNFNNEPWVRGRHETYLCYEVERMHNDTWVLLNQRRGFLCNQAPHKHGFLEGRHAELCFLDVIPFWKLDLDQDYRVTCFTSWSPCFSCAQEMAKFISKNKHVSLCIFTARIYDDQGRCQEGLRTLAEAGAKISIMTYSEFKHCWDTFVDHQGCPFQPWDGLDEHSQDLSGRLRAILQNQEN
# Nucleotide-binding oligomerization domain-containing protein 2, sequence (Q9HC29 whole entry, the tested form may be a part): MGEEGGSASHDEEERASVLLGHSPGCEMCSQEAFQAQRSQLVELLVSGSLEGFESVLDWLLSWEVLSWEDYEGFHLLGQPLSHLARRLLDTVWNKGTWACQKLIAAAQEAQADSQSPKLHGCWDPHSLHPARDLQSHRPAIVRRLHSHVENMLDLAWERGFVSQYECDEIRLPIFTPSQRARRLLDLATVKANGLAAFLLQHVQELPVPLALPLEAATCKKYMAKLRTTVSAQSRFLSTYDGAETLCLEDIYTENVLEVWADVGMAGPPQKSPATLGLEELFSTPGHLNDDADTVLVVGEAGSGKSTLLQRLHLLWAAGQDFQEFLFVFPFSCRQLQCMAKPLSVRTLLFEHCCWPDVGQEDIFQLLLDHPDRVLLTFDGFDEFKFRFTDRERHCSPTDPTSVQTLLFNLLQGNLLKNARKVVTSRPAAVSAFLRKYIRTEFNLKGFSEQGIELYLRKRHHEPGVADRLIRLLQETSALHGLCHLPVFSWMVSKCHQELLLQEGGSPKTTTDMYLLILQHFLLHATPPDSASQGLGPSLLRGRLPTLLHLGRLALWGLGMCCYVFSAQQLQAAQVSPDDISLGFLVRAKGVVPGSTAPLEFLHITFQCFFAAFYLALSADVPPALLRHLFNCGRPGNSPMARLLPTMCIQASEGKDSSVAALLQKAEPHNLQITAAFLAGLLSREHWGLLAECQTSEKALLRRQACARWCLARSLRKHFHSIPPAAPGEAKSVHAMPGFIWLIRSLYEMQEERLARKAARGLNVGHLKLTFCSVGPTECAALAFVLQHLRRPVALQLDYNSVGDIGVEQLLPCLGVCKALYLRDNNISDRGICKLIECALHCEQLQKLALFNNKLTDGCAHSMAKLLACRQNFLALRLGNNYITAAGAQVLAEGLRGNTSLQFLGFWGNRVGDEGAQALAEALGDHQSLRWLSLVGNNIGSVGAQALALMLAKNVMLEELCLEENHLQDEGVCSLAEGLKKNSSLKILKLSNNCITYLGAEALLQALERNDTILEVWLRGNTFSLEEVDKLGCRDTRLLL
structure (smiles),measurement,setting,value
COc1c(O)ccc2c1CN1CCc3cc4c(cc3C1C2)OCO4 (centres undefined),IC50,[1],> 80 µM (inactive)
same,EC50,Protein RecA,14 µM (active)
O=C(CCS(=O)(=O)c1ccccc1)Nc1nc2c(s1)COc1ccccc1-2,EC50,[2],18.7 µM (active)
same,EC50,[3],14.1 µM (active)
same,CC50,Vero,> 25 µM (active)
NS(=O)(=O)c1ccc(CCNC(=O)CCCn2c(SCC(=O)N3CCCC3)nc3ccsc3c2=O)cc1,IC50,Aminopeptidase N,97.7 µM (active)
O=C(Nc1nnc(S(=O)(=O)N2CCCCC2)s1)c1ccc(Cl)cc1,IC50,[1],> 80 µM (inactive)
same,EC50,[4],> 53 µM (inactive)
same,IC50,[5],> 47.1 µM (inactive)
COc1ccc(-c2nsc(SCC(=O)Nc3cc(C)on3)n2)cc1,IC50,[6],> 80 µM (inactive)
COC(=O)c1cc(NC(=O)Nc2cc(OC)ccc2OC)cc(C(=O)OC)c1,IC50,[6],> 80 µM (inactive)
same,IC50,H9c2,16.3 µM (active)
O=C(CNC(=O)c1cccs1)NCC(=O)OCC(=O)c1ccc([N+](=O)[O-])cc1,IC50,[1],> 80 µM (inactive)
Cn1c(=O)cc(OCCCC(=O)NC2CCCC2)c2ccccc21,IC50,[6],> 80 µM (inactive)
O=C1CC(Sc2nc[nH]n2)C(=O)N1c1ccccc1 (centres undefined),IC50,[7],55.7 µM (active)
COc1cccc(OCCOc2ccc(/C=C3/SC(=S)NC3=O)cc2)c1,IC50,HEK293 [8],> 20 µM (inactive)
same,EC50,HEK293 [9],4.27 µM (active)
same,IC50,HEK293 [10],6.67 µM (inactive)
same,IC50,HEK293 [11],6.04 µM (active)
same,IC50,HEK293 [12],16.5 µM (active)
same,EC50,[13],9.33 µM (active)
Cc1cc(-c2cc(C(=O)NCc3ccccc3)on2)nc(S(C)(=O)=O)n1,IC50,[6],> 80 µM (inactive)
COc1c(Cl)cc(Cl)cc1C(=O)Nc1ccc(CN2CCCCC2)cc1,EC50,[14],3 µM (active)
same,CC50,Vero,> 25 µM (active)
same,EC50,[15],> 60 µM (not active)
COc1cc(C(=O)ON=C2C=C(C)C(=O)C(C)=C2)cc(OC)c1OC,IC50,[1],> 80 µM (inactive)
same,IC50,Coagulation factor XII,0.533 µM (active)
same,IC50,cells,40.2 µM (active)
COC(=O)CCC(=O)Nc1sc(C)c(C)c1C(N)=O,IC50,[7],38.2 µM (active)
NC(=O)c1ccc(Oc2ccc3ccc(=O)oc3c2)c([N+](=O)[O-])c1,IC50,Aminopeptidase N,42.5 µM (active)
COCCn1c(C)cc(C(=O)CSc2ncnc3sc4c(c23)CCC4)c1C,IC50,HEK293 [8],> 20 µM (inactive)
same,EC50,HEK293 [9],10.7 µM (active)
same,IC50,HEK293 [10],18.6 µM (inactive)
same,IC50,HEK293 [11],15 µM (active)
same,IC50,HEK293 [12],19.4 µM (active)
same,EC50,[13],8.39 µM (active)
O=C(CSc1nc2ccsc2c(=O)n1NC(=O)c1ccccc1)Nc1nccs1,IC50,Aminopeptidase N,37.4 µM (active)
O=C(CNC(=O)c1ccc(Br)cc1)NCC(=O)OCC(=O)c1ccc([N+](=O)[O-])cc1,IC50,[1],> 80 µM (inactive)
O=C(Oc1ccc(F)cc1)c1ccc2c(=O)n3c(nc2c1)CCC3,IC50,cells,3.88 µM (active)
Cc1cccc(NC(=O)COC(=O)CCc2c[nH]c3ccccc23)c1C,IC50,cells,2.82 µM (active)
CCOC(=O)c1c(C)[nH]c(C(=O)COC(=O)[C@H](C)N2C(=O)C3CCCCC3C2=O)c1C (some centres undefined),AC50,[16],46.8 µM (active)
O=S(=O)(c1ccc(NC(=S)NC23CC4CC(CC(C4)C2)C3)cc1)N1CCCCC1,CC50,Vero,8.76 µM (active)
CCOCCCn1/c(=N/C(=O)c2cccnc2)c(C(=O)OCC)cc2c(=O)n3ccccc3nc21,IC50,[7],41.3 µM (active)
O=C(Oc1cccc(/C=N/Nc2nc(N3CCOCC3)nc(N3CCOCC3)n2)c1)c1ccco1,IC50,[6],> 80 µM (inactive)

# Source: ChEMBL document CHEMBL1201862, “PubChem BioAssay data set” (2004)
